Drawing on ChEMBL document CHEMBL1671658, “VanA-type vancomycin-resistant Staphylococcus aureus” (2009), this text covers MIC for one compound.

For orientation: MIC means the smallest concentration in the dilution series that meets the test's criterion for growth inhibition.

Experiment [1] deals with Staphylococcus aureus. Briefly: Antibacterial activity against VanA-type vancomycin-resistant Staphylococcus aureus isolate 1 harboring vanA operon.
Experiment [2] deals with Staphylococcus aureus. Kind of experiment: Antibacterial activity against VanA-type vancomycin-resistant Staphylococcus aureus isolate 2 harboring vanA operon.
The subject of experiment [3] is Staphylococcus aureus. Briefly: Antibacterial activity against VanA-type vancomycin-resistant Staphylococcus aureus isolate 3 harboring vanA operon.
The subject of experiment [4] is Staphylococcus aureus. Kind of experiment: Antibacterial activity against high-level-resistant vancomycin-resistant Staphylococcus aureus harboring Tn1546 element.

Structures are written as SMILES. ≈ marks a conversion by molar mass, not a printed value. Some results are limits rather than exact numbers.

On to `CN[C@H](CC(C)C)C(=O)N[C@H]1C(=O)N[C@@H](CC(N)=O)C(=O)N[C@H]2C(=O)N[C@H]3C(=O)N[C@H](C(=O)N[C@H](C(=O)O)c4cc(O)cc(O)c4-c4cc3ccc4O)[C@H](O)c3ccc(c(Cl)c3)Oc3cc2cc(c3O[C@@H]2O[C@H](CO)[C@@H](O)[C@H](O)[C@H]2O[C@H]2C[C@](C)(N)[C@H](O)[C@H](C)O2)Oc2ccc(cc2Cl)[C@H]1O` [VANCOMYCIN], for which the MIC was more than 256 µg/mL in experiment [1], 32 µg/mL (≈ 22.1 µM) in experiment [2], 64 µg/mL (≈ 44.2 µM) in experiment [3] and more than 256 µg/mL in experiment [4].
